Experiments:
[1] = Dielectric constant, ASTM D150-11; assay type: physicochemical
Description: (§1) Dielectric breakdown strength and dielectric constant were measured for PE-1, PE-2, CE-1 to CE-4. The dielectric constants presented in Table 7, below, were measured using the broadband Novocontrol Dielectric Spectrometer per ASTM D150-11. The dielectric breakdown strengths presented in Table 7 were measured according to ASTM D877-13, Procedure A, with the following modification: spacing between the electrodes was 2.54 mm and rate of rise was 500 V/sec.

[2] = Thermal stability with absorbents, GC-FID purity; assay type: physicochemical
Description: The thermal stability was measured by charging 1.0 g of Preparatory Example 2 into glass vials and then adding 0.10 g of absorbent. The samples were stirred for 24 h at 50° C. and then analyzed by GC-FID for decomposition and purity changes.

[3] = Pour point, determined visually; assay type: physicochemical
Description: The useful liquid range of a perfluorinated 1-alkoxypropene compound of the present disclosure is between its pour point and its boiling point. A pour point is the lowest temperature at which the compound is still able to be poured. The pour point can be determined, for example, by ASTM D97-16 “Standard Test Method for Pour Point of Petroleum Products.” In one embodiment, the compounds of the present disclosure have a pour point of less than −100° C., less than −120° C., less than −130° C., or less than −140° C. Pour Point can be measured by placing a sealed glass vial containing 3 mL of the fluid into a refrigerated bath, adjusting temperature incrementally and checking for pouring. Pouring is defined as visible movement of the material during a five second count. This criterion is specified in ASTM D97-16.
One to two milliliters of the sample were placed in a vial and cooled in a bath until it solidified. The sample was then allowed to warm slowly in the bath and observed every 3-5° C.

[4] = Boiling point, ASTM D1120-94; assay type: physicochemical; conditions: temperature at 760 mmHg
Description: Vapor Pressure was measured using the stirred-flask ebulliometer method described in ASTM E1719-97 “Vapor Pressure Measurement by Ebulliometry.” This method is also referred to as “Dynamic Reflux.” The boiling point was measured using ASTM D1120-94 “Standard Test Method for Boiling Point of Engine Coolants.” The method used a 50-mL glass round-bottom flask. Vacuum was measured and controlled using a vacuum controller available from J-KEM Scientific, Inc., St. Louis, Mo., USA. The pressure transducer was calibrated on the day of measurement by comparison with full vacuum and with an electronic barometer located in the same laboratory. The procedure was carried out by slowly heating the material, then applying vacuum until boiling occurred and a steady dropwise reflux rate was established. Pot temperature and pressure reading were recorded, then the vacuum controller was set for a higher absolute pressure and the material was heated further until a new reflux point was established. The pressure level was raised in increments until the vapor pressure curve was obtained up to the atmospheric boiling point.
The boiling point of PE-1 is 60.1° C., which is the temperature at 760 mmHg. The boiling point of PE-2 is 88.1° C., which is the temperature at 760 mmHg.

[5] = Dielectric breakdown strength, ASTM D877-13 Procedure A; assay type: physicochemical; conditions: electrode spacing 2.54 mm, rate of rise 500 V/sec
Description: as §1

rats = assay: Toxicity screening study in rats, 4 h inhalation LC-50; assay type: in vivo
Description: MA-3 (50 g, 160 mmol) was charged to a 3-neck flask equipped with a water-cooled condenser and magnetic stir bar. SbF5 was then added dropwise to the stirring MA-3 and a large exotherm was observed. The resultant reaction mixture was allowed to stir at room temperature for 1 h. GC-FID analysis of the reaction mixture indicated complete consumption of the MA-3 starting material. Water was then added to the mixture with stirring. The fluorous phase was collected and distilled by concentric tube distillation (59° C., 740 mmHg, 98.7 kPa) affording the desired MP-3 (41.2 g, 82% yield) as a colorless liquid. Both E- and Z-isomers were obtained as a mixture. […] The structure was confirmed by GC-MS and ^19F NMR analyses to be that of the desired product.

| Compound | Dielectric Constant (measured at 1 kHz) [1] | Purity (%) ([2]; 4 Angstrom Molecular Sieves, 24 h at 50° C.) | Purity (%) ([2]; Activated Carbon, 24 h at 50° C.) | Purity (%) ([2]; Basic Alumina, 24 h at 50° C.) | Purity (%) ([2]; K2CO3, 24 h at 50° C.) | Purity (%) ([2]; No Absorbent, 24 h at 50° C.) | Purity (%) ([2]; Silica Gel, 24 h at 50° C.) | Pour point [3] [°C] | Boiling point [4] [°C] | Dielectric Breakdown Voltage [5] [kV] | 4 h inhalation LC-50 (rats) |
| --- | --- | --- | --- | --- | --- | --- | --- | --- | --- | --- | --- |
| FC(OC(F)(F)C(F)(F)C(F)(F)OC(F)(F)F)=C(F)C(F)(F)F [PE-2, 1,2,3,3,3-pentafluoro-1-(1,1,2,2,3,3-hexafluoro-3-(trifluoromethoxy)propoxy)prop-1-ene] | 2.04 | 99.5 | 99.5 | 99.5 | 99.3 | 99.5 | 99.4 | −140 | 88.1 | >60 |  |
| FC(F)=C(F)C(F)(F)OC(F)(F)C(F)(F)C(F)(F)F [MA-3, 1,1,2,3,3-pentafluoro-3-(perfluoropropoxy)prop-1-ene, reference compound] | 2.37 |  |  |  |  |  |  |  |  | 30.7 |  |
| FC(OC(F)(F)C(F)(F)C(F)(F)F)=C(F)C(F)(F)F [PE-1, 1,2,3,3,3-pentafluoro-1-(perfluoropropoxy)prop-1-ene] | 2.04 |  |  |  |  |  |  | −145 | 60.1 | 41.7 | greater than 10,000 ppm |
| FC(F)=C(F)C(F)(F)OC(F)(F)C(F)(F)C(F)(F)OC(F)(F)F [MA-31, 1,1,2,3,3-Pentafluoro-3-(1,1,2,2,3,3-hexafluoro-3-(trifluoromethoxy)propoxy)prop-1-ene, reference compound] | 2.37 |  |  |  |  |  |  |  |  | 39.4 |  |
